Results taken from patent publication US20200339548A1, “PYRIMIDINE DERIVATIVES AND THEIR USE FOR THE TREATMENT OF CANCER” (Adorx Therapeutics Limited, priority 2017, published 2020).
Like-named read-outs stand apart in the source and are kept apart here.

Legend:
[1] = tested on: cancer; conditions: monotherapy and in combination with atezolizumab, preliminary data, cited from earlier work
[2] = target: T1, Adenosine A2a receptor (Homo sapiens, UniProt P29274); assay: Adenosine receptor TR-FRET binding assay, A2a; conditions: displacement of 100 nM CA200645, CHO cell membranes
T1 construct: expressed in transfected cells; host or cells: CHO cell membranes
In short: (§1)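 Competition TR-FRET binding in CHO cell membranes expressing terbium-labelled human receptors, displacing fluorescent XAC (CA200645; 30 nM for A2b, 100 nM for A1, A2a, A3); 2 h at room temperature with saponin buffer, 1% DMSO. 665/620 nm ratio; non-specific with 10 μM XAC; Ki by Cheng–Prusoff from IC50.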

[3] = target: T2, Adenosine A2b receptor (Homo sapiens, UniProt P29275); assay: Adenosine receptor TR-FRET binding assay, A2b; conditions: Table 9, further testing; displacement of 30 nM CA200645, CHO cell membranes
T2 construct: expressed in transfected cells; host or cells: CHO cell membranes
T2 sequence (P29275 1-332): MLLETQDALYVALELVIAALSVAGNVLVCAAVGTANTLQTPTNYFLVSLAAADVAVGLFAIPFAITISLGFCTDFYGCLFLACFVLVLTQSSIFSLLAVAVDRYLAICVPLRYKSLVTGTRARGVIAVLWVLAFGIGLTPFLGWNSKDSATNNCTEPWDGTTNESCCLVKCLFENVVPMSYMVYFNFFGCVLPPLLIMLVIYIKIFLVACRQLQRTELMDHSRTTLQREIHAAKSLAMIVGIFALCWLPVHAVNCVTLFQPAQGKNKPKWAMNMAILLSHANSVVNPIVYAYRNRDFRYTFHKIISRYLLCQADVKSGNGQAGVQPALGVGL
In short: as §1

[4] = target: T3, Adenosine A3 receptor (Homo sapiens, UniProt P0DMS8); assay: Adenosine receptor TR-FRET binding assay, A3; conditions: Table 9, further testing; displacement of 100 nM CA200645, CHO cell membranes; read-out: A3 Ki
T3 construct: expressed in transfected cells; host or cells: CHO cell membranes
T3 sequence (P0DMS8 1-318): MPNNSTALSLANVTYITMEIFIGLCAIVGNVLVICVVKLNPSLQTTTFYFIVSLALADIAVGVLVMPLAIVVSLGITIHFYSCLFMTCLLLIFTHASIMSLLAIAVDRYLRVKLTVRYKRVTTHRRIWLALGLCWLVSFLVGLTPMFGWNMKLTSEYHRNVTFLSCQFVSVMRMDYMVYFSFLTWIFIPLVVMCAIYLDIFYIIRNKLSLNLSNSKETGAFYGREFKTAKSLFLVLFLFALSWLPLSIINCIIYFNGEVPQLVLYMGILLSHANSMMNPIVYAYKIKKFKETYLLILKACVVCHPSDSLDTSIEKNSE
In short: as §1

[5] = tested on: CD8+T Cells in Human Whole Blood; assay: Measurement of pCREB in CD8+ T cells; assay type: cell-based; conditions: T-cell, 1 h; heparinised human whole blood, rolipram, 3 μM NECA, 60 min, FACS
Experimental: Heparinised human whole blood was pre-incubated at 37° C. with serial dilutions of A2a antagonists for 20 min. and the phosphodiesterase inhibitor rolipram to amplify the pCREB response. The adenosine receptor agonist NECA is then added at a final concentration of 3 μM and following a 60 min incubation the blood is fixed and red blood cells lysed. White blood cells are isolated, permeabilized and stained with directly conjugated fluorescent antibodies to phospho-CREB (Alexa Fluor 488) and CD8 (Alexa Fluor 647) and the level of phospho-CREB in CD8+ T cells is measured by FACS using a BD Accuri C6 Flow Cytometer.

[6] = target: T4, Adenosine A1 receptor (Homo sapiens, UniProt P30542); assay: Adenosine receptor TR-FRET binding assay, A1; conditions: Table 9, further testing; displacement of 100 nM CA200645, CHO cell membranes
T4 construct: expressed in transfected cells; host or cells: CHO cell membranes
T4 sequence (P30542 1-326): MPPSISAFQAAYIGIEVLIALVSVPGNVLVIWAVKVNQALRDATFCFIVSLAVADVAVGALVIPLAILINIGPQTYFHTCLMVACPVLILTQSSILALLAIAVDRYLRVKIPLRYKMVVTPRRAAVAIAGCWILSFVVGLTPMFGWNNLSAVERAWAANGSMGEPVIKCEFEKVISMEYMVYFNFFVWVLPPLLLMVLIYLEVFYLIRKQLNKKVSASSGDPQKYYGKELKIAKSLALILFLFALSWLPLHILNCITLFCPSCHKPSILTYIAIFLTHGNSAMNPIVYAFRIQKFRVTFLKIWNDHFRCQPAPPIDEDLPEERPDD
In short: as §1

[7] = tested on: Human PBMCs; assay: CD3/CD28 stimulated IL-2 release NECA reversal assay; assay type: cell-based
Experimental: Blood is drawn from healthy volunteers using sodium citrate as the anticoagulant (0.3% final concentration). […] 50 μl diluted compound mix is added to the cells, to obtain final concentrations of 1 ug/ml CD28 antibody, 1 uM NECA and 0.003-10 μM adenosine receptor antagonist. Assay plates are incubated for 24 hours at 37° C. in a humidified incubator.

[8] = tested on: Human Whole Blood; assay: LPS stimulated TNF-alpha release NECA reversal assay; assay type: cell-based; conditions: 5 hours
Experimental: Blood is drawn from healthy volunteers using sodium citrate (0.3% final concentration) or heparin (19.5 U/ml) as the anticoagulant. A 15 minute incubation may be given with adenosine deaminase (2 u/ml) prior to plating the blood into assay plates, as indicated. 20 μl diluted compound mix containing LPS, NECA and adenosine receptor antagonist diluted in RPMI medium is added to U-bottom cell culture plates. 180 μl anticoagulated blood is added. Assay plates are incubated for 5 hours at 37° C. in a humidified incubator. Plasma obtained by centrifugation at 2000 rpm/10 mins is tested for TNF alpha levels using the human TNF alpha Tissue Culture Kit (Meso Scale Discovery). For bar charts, data is expressed as raw counts from a Mesoscale Sector Imager 6000.

[9] = Homo sapiens, PBMC, read-out: IL-2 release NECA reversal IC50 (nM), 1 uM NECA, 24 hours

T1 sequence (P29274 whole entry): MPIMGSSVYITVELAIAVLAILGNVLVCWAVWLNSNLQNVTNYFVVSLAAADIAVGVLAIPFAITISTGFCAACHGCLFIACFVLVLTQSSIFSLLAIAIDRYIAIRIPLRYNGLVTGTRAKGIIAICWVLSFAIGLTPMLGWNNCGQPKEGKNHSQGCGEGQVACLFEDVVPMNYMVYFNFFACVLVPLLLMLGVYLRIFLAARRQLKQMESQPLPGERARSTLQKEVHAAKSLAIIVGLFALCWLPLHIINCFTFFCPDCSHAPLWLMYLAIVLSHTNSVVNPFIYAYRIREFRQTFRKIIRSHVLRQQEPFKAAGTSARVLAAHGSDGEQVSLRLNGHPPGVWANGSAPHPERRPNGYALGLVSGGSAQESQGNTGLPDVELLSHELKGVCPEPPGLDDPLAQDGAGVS

SMILES	Ki ([2]; Table 8, Cheng and Prusoff)	Ki ([2]; Table 9, further testing)	Ki [3]	Ki [4]	IC50 [5]	Ki [6]	IC50 [8]	CD8+T infiltration into tumour tissue ([1]; early indications)	tumour size ([1]; early indications)	tolerability [1]	IC50 ([7]; read-out: IL-2 release NECA reversal IC50, 1 uM NECA, 24 hours)	IC50 [7, 9]
Cc1ccc(-c2nc(N)nc3c2nnn3Cc2cccc(CO[C@H]3CCOC3)n2)o1 [CPI-444]								enhancing CD8^+T infiltration into tumour tissue	reducing tumour size	well tolerated		
Cc1cccnc1CNC(=O)c1cnc(-c2ccco2)nc1N [Example 3, 4-Amino-2-(2-furyl)-N-[(3-methyl-2-pyridyl)methyl]pyrimidine-5-carboxamide]	1.7 nM	3.3 nM	440 nM	908 nM	1210 nM	1720 nM	2290 nM				77 nM	
CC(C)n1ncnc1CNC(=O)c1cnc(-c2cccc(F)c2)nc1N [Example 10.15, 4-Amino-2-(3-fluorophenyl)-N-[(2-isopropyl-1,2,4-triazol-3-yl)methyl]pyrimidine-5-carboxamide]	34 nM	34 nM	1280 nM	2510 nM		90 nM						1290 nM
Cc1cccnc1CNC(=O)c1cnc(-c2cccc(C#N)c2)nc1N [Example 12, 4-Amino-2-(3-cyanophenyl)-N-[(3-methyl-2-pyridyl)methyl]pyrimidine-5-carboxamide]	27 nM	27 nM	1560 nM	1030 nM		17 nM						1200 nM
Cc1cccnc1CNC(=O)c1nnc(-c2cccc(C#N)c2)nc1N [Example 17, 5-Amino-3-(3-cyanophenyl)-N-[(3-methyl-2-pyridyl)methyl]-1,2,4-triazine-6-carboxamide]	3.8 nM	2.4 nM	405 nM	442 nM		767 nM						309 nM
COc1nc(-c2ccco2)nc(N)c1C(=O)NCc1ncccc1C [Example 18, 4-Amino-2-(2-furyl)-6-methoxy-N-[(3-methyl-2-pyridyl)methyl]pyrimidine-5-carboxamide]	1.1 nM	0.64 nM	231 nM	201 nM		202 nM						37 nM
COc1nc(-c2ccco2)nc(N)c1C(=O)NCc1ncccc1C(F)(F)F [Example 18.1, 4-Amino-2-(2-furyl)-6-methoxy-N-[[3-(trifluoromethyl)-2-pyridyl]methyl]pyrimidine-5-carboxamide]		0.23 nM	495 nM	149 nM		176 nM						28 nM
COc1nc(-c2ccco2)nc(N)c1C(=O)NCc1c(Cl)cccc1Cl [Example 18.3, 4-Amino-N-[(2,6-dichlorophenyl)methyl]-2-(2-furyl)-6-methoxy-pyrimidine-5-carboxamide]		0.078 nM	5.4 nM	194 nM	17 nM	18 nM	476 nM					5 nM
Cc1cccnc1CNC(=O)c1c(N)nc(-c2ncco2)nc1OCCF [Example 25, 4-Amino-6-(2-fluoroethoxy)-N-[(3-methyl-2-pyridyl)methyl]-2-oxazol-2-yl-pyrimidine-5-carboxamide]		1.3 nM	77 nM	62 nM	106 nM	260 nM						11 nM

The next lines start with results.

Ki ([2]; Table 8, Cheng and Prusoff)	Ki ([2]; Table 9, further testing)	Ki [3]	Ki [4]	IC50 [5]	Ki [6]	IC50 [8]	SMILES	CD8+T infiltration into tumour tissue ([1]; early indications)	tumour size ([1]; early indications)	tolerability [1]	IC50 ([7]; read-out: IL-2 release NECA reversal IC50, 1 uM NECA, 24 hours)	IC50 [7, 9]
	0.11 nM	29 nM	15 nM		6.6 nM		Cc1cccnc1CNC(=O)c1c(N)nc(-c2ccco2)nc1OCCF [Example 20.7, 4-Amino-6-(2-fluoroethoxy)-2-(2-furyl)-N-[(3-methyl-2-pyridyl)methyl]pyrimidine-5-carboxamide]					14 nM
	1.8 nM	1220 nM	11 nM		4.9 nM		Cc1cccnc1CNC(=O)c1c(N)nc(-c2ccco2)nc1OCC(C)(C)C [Example 20.10, 4-Amino-6-(2,2-dimethylpropoxy)-2-(2-furyl)-N-[(3-methyl-2-pyridyl)methyl]pyrimidine-5-carboxamide]					62 nM
	0.11 nM	80 nM	11 nM	42 nM	1.7 nM	221 nM	Cc1cccnc1CNC(=O)c1c(N)nc(-c2ccco2)nc1OC[C@H](C)O [Example 20.11, 4-Amino-2-(2-furyl)-6-[(2S)-2-hydroxypropoxy]-N-[(3-methyl-2-pyridyl)methyl]pyrimidine-5-carboxamide]					9 nM
	0.099 nM	611 nM	14 nM		9 nM		Cc1cccnc1CNC(=O)c1c(N)nc(-c2ccco2)nc1OC[C@@H](C)O [Example 20.13, 4-Amino-2-(2-furyl)-6-[(2R)-2-hydroxypropoxy]-N-[(3-methyl-2-pyridyl)methyl]pyrimidine-5-carboxamide]					19 nM
	7 nM	1070 nM	2220 nM		629 nM		CC(O)CCNC(=O)c1c(N)nc(-c2cccc(C#N)c2)nc1OCCF (centres unmarked) [Example 24.6, 4-Amino-2-(3-cyanophenyl)-6-(2-fluoroethoxy)-N-(3-hydroxybutyl)pyrimidine-5-carboxamide]					207 nM
